Laboratory results as given in paper PMC6917776, “Discovery of a chemical probe for PRDM9” (Nature Communications, 2019).

How the values were obtained:
Assay in all cases: CelltiterGlo viability cell assay
Type in all cases: cell-based
CAL851 = details: up to 30 μM; days 3 and 6; Prdm9 expressing line
Procedure: (§1) Supplementary Figure 13. […] Viability of
(§2) (a) Multiple Myeloma lines and (b) Breast Cancer cell lines following 3 or 6 days treatment with […]
(§3) manufacturer’s instructions as described in the Supplementary methods. Data are normalized to DMSO control. N=3 biological replicates, +/- SEM. Source data are provided as a Source Data […]
(§4) CelltiterGlo viability cell assay
(§5) Cells were seeded in 96 well plates at per-well densities of 10000 (MDA-MB436, ATCC-HTB130), 15000 (8226, kind gift from Rodger Tiedemann, Princess Margaret Cancer Centre), […]
(§6) kind gift from Rodger Tiedemann, Princess Margaret Cancer Centre) and 50000 (CAL851, kind gift from Mathieu Lupien, Princess Margaret Cancer Centre) and were treated at increasing concentrations of compounds ranging from 0.01 μM to 30 μM and assessed for proliferation using CelltiterGlo (Promega) following manufacturer’s instructions, as readout on days 3 and 6 as indicated. All cell lines were mycoplasma negative, as determined by MycoAlert™ Mycoplasma Detection Kit(Lonza). […]

HCC1143 = details: up to 30 μM; days 3 and 6; matched control line
Procedure: as §1, §2, §3, §4, §5, §6

HCC1806 = details: up to 30 μM; days 3 and 6; Prdm9 expressing line
Procedure: as §1, §2, §3, §4, §5, §6

MDA-MB-436 = details: up to 30 μM; days 3 and 6; matched control line
Procedure: as §1, §2, §3, §4, §5, §6

RPMI-8226 = details: up to 30 μM; days 3 and 6; matched control line
Procedure: as §1, §2, §3, §4, §5, §6

SKMM2 = details: up to 30 μM; days 3 and 6; Prdm9 expressing line
Procedure: as §1, §2, §3, §4, §5, §6

Measured: Effect on proliferation (in words)

COc1cc(OC)cc(-c2noc(N3CCN(C)C4(CCN(c5ccnc(C)c5)CC4)C3)n2)c1 [MRK-740]
did not have any significant effect: all assays above
